The results in this text go back to patent US6391309B1, “Method of preparing and using isoflavones for the treatment of female symptoms” (Archer Daniesl Midland Company, priority 1996, dated 2002).

One series relates to LNCaP cells. Briefly: In vitro secretion of PSA by LNCaP cells into media. In kind it is cell-based. Here is the method: PSA concentrations were reduced 68% and 74% by 25 and 50 μM of genistein treatment respectively, and 31% and 42% by 25 and 50 μM of soy phytochemical concentrate treatment respectively.
Series [1] is described as follows: Solubility of isoflavones in distilled water at 37° C., HPLC after filtration. In kind it is physicochemical. Conditions: 0.02% in distilled water, 17 hours, 0.2 micron filter. Here is the method: Separate solutions (0.02% in distilled water) were made for genistein, genistin, daidzein, daidzin and isoflavone concentrate in volumetric flasks. Samples were then placed in a 37° C. water bath for 17 hours, followed by rapid filtration through a 0.2 micron syringe-type filter to remove particulates. Filtered samples were then analyzed for isoflavone concentration by HPLC.

Turning to `O=c1c(-c2ccc(O)cc2)coc2cc(O)cc(O)c12` [genistein], the PSA concentration reduced in the series with LNCaP cells (25 μM) was 68%; in the series with LNCaP cells (50 μM) it was 74%. Besides, the “Genistein concentration in solution (solubility)” value in series [1] came out at 7.42 ppm.

Take `O=c1c(-c2ccc(O)cc2)coc2cc(O[C@@H]3O[C@H](CO)[C@@H](O)[C@H](O)[C@H]3O)ccc12` [daidzin]: the “Daidzin concentration in solution (solubility)” value in series [1] turned out to be 48.51 ppm.
